# Measured values: patent US9265845B2, “Imaging methods using engineered integrin binding peptides” (The Board of Trustees of the Leland Stanford Junior …, priority 2006, dated 2016)
# pIC50: −log10 of the molar value. No end group written: not given here.
# Legend:
# αvβ3 and αvβ5 integrins = conditions: inhibiting cell adhesion mediated by αvβ3 and αvβ5 integrins; cited from earlier work
# [1] = system: fibronectin cell adhesion; conditions: cited from earlier work
# in vitro = in vitro ADME; conditions: mouse serum, 37° C., read-out: peptide remaining
# Text: Their larger size (˜3-4 kDa) and enhanced affinity compared to RGD-based cyclic peptides confer enhanced pharmacokinetics and biodistribution for molecular imaging and therapeutic applications. This is described in connection with FIG. 8. These RGD-miniproteins are small enough to allow for chemical synthesis and site-specific conjugation of imaging probes, radioisotopes, or chemotherapeutic agents. Furthermore, they can easily be chemically modified to further improve in vivo properties if necessary. […] The tumor is indicated by an arrow. The near infrared fluorescent Cy5.5 label study provides guidance for the preparation of these polypeptides as ^18F and ^64Cu-labeled PET imaging probes. […]
# (§1) The stability of the knottin peptide 2.5D upon exposure to human or mouse serum at 37° C. was measured. Reversed-phase HPLC was used to quantify the amount of intact knottin peptide remaining at various times post incubation.
# Nonradioactive mock-PET tracers are incubated with mouse and human serum for various time points at 37° C., and aliquots are acidified and flash frozen. […] The cartridge-bound PET-tracers are eluted with 90% acetonitrile containing 0.1% TFA, lyophilized, and resuspended in solvent A. The solution is passed through a NANOSEP (Pall Corp) 10 kDa cutoff filter and analyzed by reversed-phase HPLC to determine the amount of polypeptide-conjugate remaining.
# U87MG glioblastoma cells [2] = test: Blocking of U87MG cell adhesion to vitronectin-coated plates; format: cell-based; conditions: vitronectin-coated plates
# Text: (§2) The present engineered peptides may be used in a variety of ways. If the peptides are attached to a surface, they may be used to attract/recruit cells to grow on the surface. For example, the present peptides may be applied to prosthetic devices, implants, bone grafts, and the like to promote tissue growth and healing at the site. They may be attached to culture dishes and promote attachment and differentiation of cells in culture. In addition, the present engineered peptides may be used to modulate cell binding to selected integrins such as α5β1, αvβ3 and αvβ5, particularly αvβ3, by adding the peptides to a cell culture to prevent cells expressing these integrins from adhering to a substrate. […] Also, the present 2.5F, 2.5D and 1.5B peptides were tested for blocking adhesion of U87MG glioblastoma cells to fibronectin-coated plates.
# (§3) In another experiment, the ability of engineered knottin peptides to block U87MG cell adhesion to vitronectin- and fibronectin-coated microtiter plates. Vitronectin is a natural ligand for several integrins, including αvβ3 and αvβ5. The RGD-containing peptides were all able to inhibit U87MG cell adhesion to vitronectin-coated plates in a dose-responsive manner. […] Fibronectin also binds to several integrins, (including αvβ3 and α5β1), but the α5β1 integrin receptor is generally selective for fibronectin.
# Whether the engineered AgRP peptides could block vitronectin-mediated adhesion to the U87MG cells was tested using an analogous assay. […] The AgRP peptides may not effectively block U87MG adhesion compared to the K562-αvβ3 cells because the αvβ5 integrins co-expressed on the surface of the U87MG cells could also contribute to vitronectin-mediated adhesion and compensate for the loss of αvβ3 integrin function.
# αvβ5 integrin = αvβ5 integrin (Homo sapiens, UniProt P06756+P18084); test: Competition of 125I-echistatin to detergent-solubilized plate-coated integrin; format: binding; conditions: 0.06 nM 125I echistatin, 5 nM and 50 nM peptide
# Description: (§4) FIG. 10A through FIG. 10D is a series of histograms showing binding specificities to integrins αvβ3, αvβ5, α5β1, and αiibβ3 for engineered EETI-RGD peptides compared to controls. Error bars represent experiments performed in triplicate. Competition binding of 0.06 nM ^125I echistatin with 5 nM (black bars) and 50 nM (grey bars) unlabeled peptide to plate-coated integrins was measured. […] The engineered peptides have very little binding to αiibβ3 integrin.
# (§5) This was done by competition of ^125I-echistatin to detergent-solubilized integrin receptors coated onto microtiter plates (see FIG. 10). […] This is consistent with previous studies which have shown αv integrin receptors can accommodate a wide range of RGD-containing cyclic structures. […] However, since α5β1 integrins are expressed on many tumors and are all involved in mediating angiogenesis and metastasis, a broad spectrum agent that targets all three integrins will be useful for diagnostic and therapeutic applications. With the exception of echistatin, all of the RGD-containing peptides bound weakly to the αiibβ3 receptor, showing the specificity of the present peptides for the αv and α5-containing integrin heterodimers. This characteristic is valuable for molecular imaging and therapeutic applications, since binding to αiibβ3 on platelet cells prevents blood clotting and would lead to non-specific in vivo effects.
# α5β1 integrin = α5β1 integrin (Homo sapiens, UniProt P05556+P08648); test: as above; format: binding; conditions: 0.06 nM 125I echistatin, 5 nM and 50 nM peptide
# Description: as §4, §5
# αvβ3 integrin = αvβ3 integrin (Homo sapiens, UniProt P05106+P06756); test: as above; format: binding; conditions: 0.06 nM 125I echistatin, 5 nM and 50 nM peptide
# Description: as §4, §5
# U87MG tumor = test: MicroPET imaging and biodistribution of radiolabeled peptides in U87MG tumor-bearing mice; format: in vivo, mouse; conditions: 64Cu-DOTA-labeled peptides, compared to 64Cu-DOTA-c(RGDyK)
# Description: MicroPET imaging of tumor-bearing mice is performed on a microPET R4 rodent model scanner (Concorde Microsystems Inc, Knoxyille, Tenn.). U87MG tumor bearing mice are injected with PET imaging agent via the tail vein. At various times post injection, the mice are anesthetized with 2% isoflurane, and 10 min static scans are obtained. Images are reconstructed by a two-dimensional ordered expectation maximum subset algorithm as previously described. Regions of interest (ROI) are drawn over the tumor on decay corrected whole body images and ROI derived % injected dose per gram of tissue is determined. Statistical analysis is performed using the student's t-test for unpaired data. A 95% confidence level is used to determine statistical significance.
# Female athymic mice bearing U87MG tumors were injected with 80-150 μCi of ^64Cu-DOTA-knottin 2.5D or 7-9 μCi of [^18F]-FB-E[knottin 2.5D]. Static images were taken at various timepoints post injection using a microPET R4 rodent model scanner (Concorde Microsystems Inc, Knoxyille, Tenn.). […] Uptake was also observed in the kidney as both probes cleared through the bladder.
# Mice are sacrificed by exanguinations at various time points postinjection. Blood, tumor and the major organs and tissues are collected, wet-weighed and measured in a γ-counter. The % injected dose per gram is determined for each sample. For each mouse, radioactivity of the tissue samples is calibrated against a known aliquot of the injectate. Values are reported as the mean±standard deviation.
# The following Table 10 quantifies the ^64Cu-DOTA knottin uptake by direct tissue sampling of the mice up to 24 hours post injection and is reported in % ID (percent injected dose)/gram. Similar results were obtained with [^18F]-FB-E[knottin 2.5D].
# A U87MG glioblastoma xenograft mouse model was used. U87MG cells were maintained at 37° C. in a humidified atmosphere containing 5% CO2 in Dulbecco's modified eagle medium, 10% heat-inactivated fetal bovine serum, and penicillin-streptomycin (all from Invitrogen). Animal procedures were carried out according to a protocol by Stanford University Administrative Panels on Laboratory Animal Care. Female athymic nude mice (nu/nu), obtained at 4-6 weeks of age (Charles River Laboratories, Inc.), were injected subcutaneously in the right or left shoulder with 2×10^7 U87MG glioblastoma cells suspended in 100 μL of PBS. Mice were used for in vivo imaging studies when their tumors reached approximately 8 to 10 millimeters in diameter.
# U87MG tumor-bearing mice (n=3 or more for each probe) were injected with ˜100 μCi of ^64Cu-DOTA-conjugated peptides via the tail vein and imaged with a microPET R4 rodent model scanner (Siemens Medical) using 3 or 5 min static scans. […] Images were reconstructed by a two dimensional ordered expectation maximum subset algorithm and calibrated as previously described (Wu, Y, Zhang, X, Xiong, Z, et al. microPET imaging of glioma integrin {alpha}v{beta}3 expression using (64)Cu-labeled tetrameric RGD peptide. J Nucl Med 2005; 46:1707-18). ROIs were drawn over the tumor on decay-corrected whole body images using ASIPro VM software (Siemens Medical). The mean counts per pixel per minute were obtained from the ROI and converted to counts per milliliter per minute with a calibration constant. ROIs were converted to counts/g/min, and % ID/g values were determined assuming a tissue density of 1 g/mL. No attenuation correction was performed.
# U87MG glioblastoma cells [3] = test: Blocking of U87MG cell adhesion to fibronectin-coated plates; format: cell-based
# Text: as §2, §3
# [4] = Stability in human serum at 37° C., reversed-phase HPLC; format: in vitro ADME
# Description: as §1
# Nonradioactive mock-PET tracers are incubated with mouse and human serum for various time points at 37° C., and aliquots are acidified and flash frozen. The aliquots are then thawed and microcentrifuged at high speeds to remove aggregates. The soluble fraction is passed through a Sep-Pak C18 cartridge (Waters Corp), and rinsed several times with water containing 0.1% TFA (solvent A). The cartridge-bound PET-tracers are eluted with 90% acetonitrile containing 0.1% TFA, lyophilized, and resuspended in solvent A. The solution is passed through a NANOSEP (Pall Corp) 10 kDa cutoff filter and analyzed by reversed-phase HPLC to determine the amount of polypeptide-conjugate remaining.
# [5] = molecular target: T1, αvβ3 integrin on U87MG glioblastoma cells (Homo sapiens, UniProt P05106+P06756); test: 125I-echistatin competition binding to U87MG glioblastoma cells
# T1 construct: host or cells: U87MG glioblastoma cells
# Description: FIG. 9 is a graph showing normalized competition plotted against peptide concentration in an integrin-binding assay on U87MG glioblastoma cells.
# U87MG glioblastoma cells, which express ˜10^5 αvβ3 integrin receptors per cell, were used for these studies. […] An EETI-based polypeptide with a scrambled RDG amino acid sequence, designated FN-RDG, served as a negative control.
# Half-maximal inhibitory concentrations (IC50) […] of data measured on at least three separate days. Data for unlabeled and Cy5.5-labeled peptides are shown. Site-specific labeling of RGD miniproteins with a near-infrared optical imaging probe: The free N-terminal amine of our polypeptides was used for site-specific attachment of Cy5.5, a near infrared imaging probe.
# An αvβ3 integrin receptor binding assay is performed to determine the relative affinities of the mock-PET tracers compared to their unlabeled polypeptides. Briefly, 2×10^5 U87MG glioblastoma cells are incubated with 0.06 nM ^125I-echistatin in integrin binding buffer (25 mM Tris-HCl, pH 7.4, 150 mM NaCl2 1 mM CaCl2 1 mM MgCl2, 1 mM MnCl2, 0.1% BSA), in the presence of increasing concentrations of mock-PET tracers at room temperature. After incubation for 3 h, cells are pelleted by centrifugation at 1500 RPM and washed three times in binding buffer to remove unbound ligands. The radioactivity remaining in the cell pellet is measured by γ counting. IC50 values are determined by plotting the % competition and using a four-point binding equation (Kaleidagraph) to fit the data.
# αiibβ3 integrin = αiibβ3 integrin (Homo sapiens, UniProt P05106+P08514); test: Competition of 125I-echistatin to detergent-solubilized plate-coated integrin; format: binding; conditions: 0.06 nM 125I echistatin, 5 nM and 50 nM peptide
# Description: as §4, §5
# α5β1 expressing cells = conditions: inhibiting attachment of α5β1 expressing cells to fibronectin; cited from earlier work
compound,measurement,setting,value
"ACDCRGDCFCG (disulfide (positions not given here); also: two disulfide bonds, pairing not given here)",fold more effective than comparable peptides with one disulfide bond,αvβ3 and αvβ5 integrins,20 fold
same,fold more potent than linear RGD peptides,αvβ3 and αvβ5 integrins,200 fold
GRGD,pIC50,[1],2.97
CC(C)[C@@H]1NC(=O)[C@@H]2CSSC[C@H](NC(=O)CN)C(=O)N3CCC[C@H]3C(=O)N[C@@H](CCC(N)=O)C(=O)NCC(=O)N[C@@H](CCCNC(=N)N)C(=O)NCC(=O)N[C@@H](CC(=O)O)C(=O)N[C@@H](Cc3c[nH]c4ccccc34)C(=O)N[C@@H](C)C(=O)N3CCC[C@H]3C(=O)N[C@@H]([C@@H](C)O)C(=O)N[C@@H](CO)C(=O)N[C@H]3CSSC[C@H](NC1=O)C(=O)NCC(=O)N1CCC[C@H]1C(=O)N[C@@H](CC(N)=O)C(=O)NCC(=O)N[C@@H](Cc1ccccc1)C(=O)N[C@H](C(=O)NCC(=O)O)CSSC[C@H](NC(=O)[C@H](CC(=O)O)NC(=O)[C@H](CO)NC(=O)[C@H](CC(=O)O)NC(=O)[C@H](CCC(N)=O)NC(=O)[C@H](CO)NC3=O)C(=O)N[C@@H](CCCNC(=N)N)C(=O)N[C@@H](C)C(=O)NCC(=O)N2 [2.5D],remaining at 24 h,in vitro; 24 h,~90%
same,remaining at 96 h,in vitro; 96 h,~70%
same,"blocking of U87MG cell adhesion to vitronectin, in words",U87MG glioblastoma cells [2],blocked adhesion better than controls
same,"binding to αvβ5 integrin, in words",αvβ5 integrin,strongest levels of binding
same,"binding to α5β1 integrin, in words",α5β1 integrin,only minimal binding
same,"binding to αvβ3 integrin, in words",αvβ3 integrin,strongest levels of binding
same,"liver uptake, in words",U87MG tumor,lower liver uptake
same,"blocking of U87MG cell adhesion to fibronectin, in words",U87MG glioblastoma cells [3],only echistatin and polypeptide 2.5F blocked adhesion
same,remaining at 24 h,"[4]; 24 h, read-out: peptide remaining",~90%
same,peptide remaining,[4]; 96 h,approximately 70%
"FN-RDG: EETI-based polypeptide with a scrambled RDG amino acid sequence, negative control (GCVTGRDGSPASSCSQDSDCLAGCVCGPNGFCG)","binding to U87MG cells / competition with 125I-echistatin, in words",[5],not able to compete
same,"blocking of U87MG cell adhesion to vitronectin, in words",U87MG glioblastoma cells [2],not able to inhibit
same,"binding to αiibβ3 integrin, in words",αiibβ3 integrin,did not bind
same,"binding to αvβ5 integrin, in words",αvβ5 integrin,did not bind
same,"binding to α5β1 integrin, in words",α5β1 integrin,did not bind
same,"binding to αvβ3 integrin, in words",αvβ3 integrin,did not bind
same,"blocking of U87MG cell adhesion to fibronectin, in words",U87MG glioblastoma cells [3],not able to inhibit
CRGDCL (also: cyclic),fold more potent than linear RGD hexapeptides,α5β1 expressing cells,10 fold
